≈ marks a conversion by molar mass, not a printed value. Calls of active or inactive are those of the source. The calls are words filed in the database; no cut-off is given here.
Key:
Leishmania donovani [1] = assay: Induction of apoptosis in Leishmania donovani MHOM/IN/80/Dd8 promastigotes assessed as decrease in cytochrome c level in mitochondria at 50 uM incubated upto 48 hrs by immunoblot analysis; assay type: functional, organism-based; conditions: TDE = time-dependent effect
[2] = Metabolic stability in mouse liver microsomes assessed as elimination rate constant at 10 ug/ml incubated for 1 hrs in presence of NADPH by UPLC analysis; assay type: ADME, Microsome; conditions: dose 10 µg/ml
[3] = Metabolic stability in mouse liver microsomes assessed as half life at 10 ug/ml incubated for 1 hrs in presence of NADPH by UPLC analysis; assay type: ADME, Microsome; conditions: dose 10 µg/ml
[4] = Cytotoxicity against mouse macrophage J774 cells assessed as inhibition of cell viability incubated for 72 hrs by MTT assay; assay type: toxicity, cell-based
Leishmania donovani [5] = assay: Induction of apoptosis in Leishmania donovani MHOM/IN/80/Dd8 promastigotes assessed as increase in cytochrome c level in cytosol at 50 uM incubated upto 48 hrs by immunoblot analysis; assay type: functional, organism-based; conditions: TDE = time-dependent effect
Leishmania donovani [6] = assay: Antileishmanial activity against Leishmania donovani MHOM/IN/80/Dd8 promastigotes harboring luciferase gene infected in mouse J774 cells assessed as inhibition of parasite viability incubated for 72 hrs by Steady-Glo reagent based luciferase assay relative to control; assay type: functional, organism-based; conditions: MHOM/IN/80/Dd8, J774, 72 h
Leishmania donovani [7] = assay: Antileishmanial activity against Leishmania donovani MHOM/IN/80/Dd8 amastigotes harboring luciferase gene infected in mouse J774 cells assessed as inhibition of parasite viability incubated for 72 hrs by Steady-Glo reagent based luciferase assay relative to control; assay type: functional, organism-based; conditions: MHOM/IN/80/Dd8, J774, 72 h
Leishmania donovani [8] = assay: Induction of apoptosis in Leishmania donovani MHOM/IN/80/Dd8 promastigotes assessed as breakdown of nuclear DNA at 50 uM incubated for 72 hrs by agarose gel electrophoresis; assay type: functional, organism-based
[9] = Stability of compound in SIF assessed as parent compound remaining at 10 ug/ml incubated for 2 hrs by UPLC analysis; assay type: ADME; conditions: at 10 µg/mL, read-out: Stability
[10] = Metabolic stability in mouse liver microsomes assessed as intrinsic clearance at 10 ug/ml measured per mg protein incubated for 1 hrs in presence of NADPH by UPLC analysis; assay type: ADME, Microsome; conditions: dose 10 µg/ml, read-out: CLH
[11] = Metabolic stability in mouse liver microsomes assessed as parent compound remaining at 10 ug/ml incubated for 1 hrs in presence of NADPH by UPLC analysis; assay type: ADME, Microsome; conditions: at 10 µg/mL, read-out: Stability
Leishmania donovani [12] = assay: Antileishmanial activity against Leishmania donovani MHOM/IN/80/Dd8 promastigotes infected in Balb/c mouse assessed as inhibition organ parasite burden in spleen at 12.5 mg/kg, ip for 7 days by Giemsa staining based microscopy; assay type: functional; conditions: MHOM/IN/80/Dd8, 168 h, time 7 day
Leishmania donovani [13] = assay: Induction of apoptosis in Leishmania donovani MHOM/IN/80/Dd8 promastigotes assessed as ladder like DNA at 50 uM incubated for 72 hrs by agarose gel electrophoresis; assay type: functional, organism-based
J774 [14] = assay: Cytotoxicity against mouse macrophage J774 cells assessed as reduction in cell viability at 6.25 to 25 uM incubated for 72 hrs by MTT assay; assay type: toxicity, cell-based; conditions: j774, 72 h, dose 6.25-25 µM
Leishmania donovani [15] = assay: Antileishmanial activity against Leishmania donovani MHOM/IN/80/Dd8 amastigotes harboring luciferase gene infected in mouse J774 cells assessed as inhibition of parasite viability at 25 uM incubated for 72 hrs by Steady-Glo reagent based luciferase assay relative to control; assay type: functional; conditions: MHOM/IN/80/Dd8, J774
[16] = Cytotoxicity against human HepG2 cells assessed as inhibition of cell viability incubated for 72 hrs by MTT assay; assay type: toxicity, cell-based
[17] = Aqueous solubility of the compound incubated for 24 hrs by shake flask method; assay type: physicochemical; conditions: water
Leishmania donovani [18] = assay: Antileishmanial activity against Leishmania donovani MHOM/IN/80/Dd8 promastigotes infected in Balb/c mouse assessed as inhibition organ parasite burden in spleen at 50 mg/kg, ip for 7 days by Giemsa staining based microscopy; assay type: functional; conditions: MHOM/IN/80/Dd8, 168 h, time 7 day
Leishmania donovani [19] = assay: Antileishmanial activity against Leishmania donovani MHOM/IN/80/Dd8 promastigotes infected in Balb/c mouse assessed as inhibition organ parasite burden in spleen at 6.25 mg/kg, ip for 7 days by Giemsa staining based microscopy; assay type: functional; conditions: MHOM/IN/80/Dd8, 168 h, time 7 day
[20] = Selectivity index, ratio of CC50 for cytotoxicity against human HepG2 cells to IC50 for antileishmanial activity against Leishmania donovani MHOM/IN/80/Dd8 amastigotes harboring luciferase gene infected in mouse J774 cells; assay type: toxicity, cell-based; conditions: read-out: Ratio CC50/IC50
[21] = Stability of compound in SGF assessed as parent compound remaining at 10 ug/ml incubated for 2 hrs by UPLC analysis; assay type: ADME; conditions: at 10 µg/mL, read-out: Stability
Leishmania donovani [22] = assay: Induction of cell cycle arrest in Leishmania donovani MHOM/IN/80/Dd8 promastigotes assessed as increase in subG0/G1 phase at 50 uM incubated for 72 hrs by PI staining based flow cytometry; assay type: functional
Leishmania donovani [23] = assay: Antileishmanial activity against Leishmania donovani MHOM/IN/80/Dd8 promastigotes infected in Balb/c mouse assessed as inhibition organ parasite burden in liver at 6.25 mg/kg, ip for 7 days by Giemsa staining based microscopy; assay type: functional; conditions: MHOM/IN/80/Dd8, 168 h, time 7 day
Leishmania donovani [24] = assay: Induction of mitochondrial membrane potential loss in Leishmania donovani MHOM/IN/80/Dd8 promastigotes assessed as apoptotic cells at 50 uM incubated for 24 hrs by JC-1 dye staining based flow cytometry; assay type: functional
Leishmania donovani [25] = assay: Antileishmanial activity against Leishmania donovani MHOM/IN/80/Dd8 promastigotes infected in Balb/c mouse assessed as inhibition organ parasite burden in liver at 50 mg/kg, ip for 7 days by Giemsa staining based microscopy; assay type: functional; conditions: MHOM/IN/80/Dd8, 168 h, time 7 day
J774 [26] = assay: Cytotoxicity against mouse macrophage J774 cells assessed as reduction in cell viability at 50 to 100 uM incubated for 72 hrs by MTT assay; assay type: toxicity, cell-based; conditions: j774, 72 h, dose 50-100 µM
Leishmania donovani [27] = assay: Antileishmanial activity against Leishmania donovani MHOM/IN/80/Dd8 promastigotes harboring luciferase gene infected in mouse J774 cells assessed as inhibition of parasite viability at 25 uM incubated for 72 hrs by Steady-Glo reagent based luciferase assay relative to control; assay type: functional; conditions: MHOM/IN/80/Dd8, J774
[28] = Selectivity index, ratio of CC50 for cytotoxicity against mouse macrophage J774 cells to IC50 for antileishmanial activity against Leishmania donovani MHOM/IN/80/Dd8 amastigotes harboring luciferase gene infected in mouse J774 cells; assay type: toxicity, cell-based; conditions: read-out: Ratio CC50/IC50
[29] = Stability of compound in mouse plasma assessed as parent compound remaining at 10 ug/ml incubated for 2 hrs by UPLC analysis; assay type: ADME, cell-free; conditions: at 10 µg/mL, read-out: Stability
Leishmania donovani [30] = assay: Antileishmanial activity against Leishmania donovani MHOM/IN/80/Dd8 promastigotes infected in Balb/c mouse assessed as inhibition organ parasite burden in liver at 12.5 mg/kg, ip for 7 days by Giemsa staining based microscopy; assay type: functional; conditions: MHOM/IN/80/Dd8, 168 h, time 7 day
[31] = Octanol/water partition coefficient, logP of the compound incubated for 24 hrs by shake flask method; assay type: physicochemical
Leishmania donovani [32] = assay: Induction of mitochondrial membrane potential loss in Leishmania donovani MHOM/IN/80/Dd8 promastigotes assessed as apoptotic cells at 50 uM incubated for 48 hrs by JC-1 dye staining based flow cytometry; assay type: functional
Leishmania donovani [33] = assay: Antileishmanial activity against Leishmania donovani MHOM/IN/80/Dd8 promastigotes harboring luciferase gene infected in mouse J774 cells assessed as inhibition of parasite viability at 50 uM incubated for 72 hrs by Steady-Glo reagent based luciferase assay relative to control; assay type: functional; conditions: MHOM/IN/80/Dd8, J774

COc1ccc(-c2c3c(nc4ccc(OC)cc24)CN(C(C)(C)C(=O)NC(C)(C)C)C3=O)cc1
Activity (Leishmania donovani [1]): Tde
k el at 1 h, 10 ug/ml [2]: 3.89e-05 s⁻¹
half-life at 10 ug/ml [3]: 5.07 h
CC50 at 72 h [4]: 65.1 µM
Activity (Leishmania donovani [5]): Tde
IC50 (Leishmania donovani [6]): 8.36 µM
IC50 (Leishmania donovani [7]): 7.36 µM
Activity (Leishmania donovani [8]): Active
remaining at 2 h, 10 ug/ml [9]: 85.5%
microsomal CLint at 10 ug/ml [10]: 4.61 µL/min/mg
remaining at 1 h, 10 ug/ml [11]: 86.8%
inhibition in vivo at 12.5 mg/kg (Leishmania donovani [12]): 61.1%
Activity (Leishmania donovani [13]): Active
Activity (J774 [14]): Non-Toxic
inhibition at 25 µM (Leishmania donovani [15]): 85.5%
CC50 at 72 h [16]: 63.7 µM
solubility thermodynamic at 24 h [17]: 157 µg/mL (≈ 340 µM)
inhibition in vivo at 50 mg/kg (Leishmania donovani [18]): 63.4%
inhibition in vivo at 6.25 mg/kg (Leishmania donovani [19]): 42.4%
selectivity ratio [20]: 7.62
remaining at 2 h, 10 ug/ml [21]: 87.5%
Activity (Leishmania donovani [22]): 58.4%
inhibition in vivo at 6.25 mg/kg (Leishmania donovani [23]): 45.1%
Activity (Leishmania donovani [24]): 36%
inhibition in vivo at 50 mg/kg (Leishmania donovani [25]): 57.8%
Activity (J774 [26]): >= 30%
inhibition at 25 µM (Leishmania donovani [27]): 85.4%
selectivity ratio [28]: 7.79
remaining at 2 h, 10 ug/ml [29]: 88.7%
inhibition in vivo at 12.5 mg/kg (Leishmania donovani [30]): 56.2%
logP at 24 h [31]: 2.7
Activity (Leishmania donovani [32]): 69.1%
inhibition at 50 µM (Leishmania donovani [33]): 86.5%

— ChEMBL document CHEMBL5104126, “Discovery of 2,3-dihydro-1H-pyrrolo[3,4-b]quinolin-1-one derivatives as possible antileishmanial agents” (RSC Med Chem, 2022)
